The text below walks through data of patent US8093231B2, “Sulfonylethyl phosphorodiamidates” (Telik, Inc., priority 2004, dated 2012).

Like-named read-outs stand apart in the source and are kept apart here.

For experiment [1], the system named is MX-1 (human breast cancer) tumor. Kind of experiment: MX-1 xenograft assay, intraperitoneal administration. It is filed as in vivo, athymic nu/nu mice. To be noted: 100 mg/Kg intraperitoneal once/day for 5, 9, or 14 days. As to the method: Female athymic nu/nu mice (Harlan, Indianapolis, Ind., U.S.A. or similar vendor), 6-8 weeks old (approximately 20 g), were implanted in the mammary fat pad of the right fore flank with 20-30 mg pieces of MX-1 (human breast cancer) tumor harvested from similar mice that had previously been implanted with the MX-1 tumor. Approximately 7-10 days after tumor transplantation, when the tumor weight was approximately 50-200 mg, the mice were assigned to treatment groups. […] All compounds were active in this assay, with tumor growth inhibition compared to vehicle between 5% (compound 171A) and 99% (compound 13A), with most compounds causing at least 30% tumor growth inhibition. […] Compound 13A was tested at 25, 50, or 100 mg/Kg for 5 or 9 days, causing tumor inhibition between 19% (25 mg/Kg for 5 days) and 99% (100 mg/Kg for 9 days). Compound 70A was tested at 50, 100, and 150 mg/Kg for 5 or 12 days, causing tumor inhibition between 16% (50 mg/Kg for 5 days) and 95% (150 mg/Kg for 12 days).

The subject of experiment [2] is LNCap (prostate carcinoma). Kind of experiment: Cytotoxicity/growth inhibition assay, LNCap. It is filed as cell-based, human. The note with it: read-out: IC50 (LNCap). An outline of the steps:
(§1)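 Test compounds in DMSO (0.1–200 μM; final DMSO 0.5%) added to freshly diluted cells (3×10^3 cells/mL MX-1 and DLD-1, 6×10^3 cells/mL LNCap), triplicate wells. Cultured ~three doubling times (3 days MX-1, 4 days DLD-1/LNCap). CellTiter-Glo luminescence, 15 min room temperature; growth expressed as % of DMSO solvent control.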

Experiment [3] concerns DLD-1 (colorectal adenocarcinoma). As to the kind of experiment: Cytotoxicity/growth inhibition assay, DLD-1. It is filed as cell-based, human. To be noted: read-out: IC50 (DLD-1). An outline of the steps: as §1
The next experiment deals with MX-1 (breast carcinoma). Kind of experiment: Cytotoxicity/growth inhibition assay, MX-1. It is filed as cell-based, human. The note with it: read-out: IC50 (MX-1). The procedure, abridged: as §1
Experiment [4] relates to HCT116 (human colon cancer) tumor. Kind of experiment: HCT116 xenograft assay, intraperitoneal administration. It counts as in vivo, athymic nu/nu mice. As to the method: Male athymic nu/nu mice, 6-8 weeks old (approximately 20 g), were implanted subcutaneously in the right fore flank with 20-30 mg pieces of HCT116 (human colon cancer) tumor harvested from similar mice that had previously been implanted with the HCT116 tumor. Approximately 7-10 days after tumor transplantation, when the tumor weight was approximately 50-200 mg, the mice were assigned to treatment groups. Groups of mice were treated with compounds 5A or 13A at 100 mg/Kg, or compound 70A at 150 mg/Kg, by intraperitoneal injection once/day for 11 days, with vehicle control. Tumor growth inhibition was measured 13 days after the start of treatment.

Where [5] appears, read: LNCap cells, 4 days culture, CellTiter-Glo, 0.1-200 μM tested.
[6] abbreviates: DLD-1 cells, 4 days culture, CellTiter-Glo, 0.1-200 μM tested.
Where [7] appears, read: MX-1 cells, 3 days culture, CellTiter-Glo, 0.1-200 μM tested.

In the case of `CCOC(=O)CNC(=O)c1ccc(CS(=O)(=O)CCOP(=O)(N(CCCl)CCCl)N(CCCl)CCCl)cc1` [Compound 172A, α-[[2-[[bis[bis(2-chloroethyl)amino]phosphinyl]oxy]ethyl]sulfonyl]-4-[(ethoxycarbonylmethyl)-aminocarbonyl]toluene], the “activity in MX-1 xenograft assay” value in experiment [1] is listed as “active”. In addition, the IC50 – broadly, the concentration at which inhibition is half-maximal – is 31.6 µM in experiment [2] (Homo sapiens, LNCaP, 96 h); 6.1 µM in experiment [3] (Homo sapiens, DLD-1, 96 h); 4.8 µM with MX-1 (breast carcinoma) (Homo sapiens, MX1, 72 h).

Turning to `O=C(CS(=O)(=O)CCOP(=O)(N(CCCl)CCCl)N(CCCl)CCCl)NCCN1CCOCC1` [Compound 23A], the “activity in MX-1 xenograft assay” value in experiment [1] is “active”. Moreover, the 50% inhibitory concentration (IC50) in experiment [2] (setting [5]) is 47.5 µM; in experiment [3] (setting [6]) it was 6.6 µM; with MX-1 (breast carcinoma) (setting [7]), 25.9 µM.

With `CCCCS(=O)(=O)CCOP(=O)(N(CCCl)CCCl)N(CCCl)CCCl` [Compound 5A], the “activity in MX-1 xenograft assay” value in experiment [1] is listed as “active”. Besides, the results for the IC50 (in experiment [2] (setting [5]); in experiment [3] (setting [6]); in the experiment with MX-1 (breast carcinoma) (setting [7])) were 42.8 µM, 6.6 µM and 14.3 µM, respectively. Moreover, in experiment [4] (100 mg/Kg intraperitoneal once/day for 11 days, measured 13 days after start), the “inhibition of tumor growth compared to vehicle” value is recorded as 10%. The “activity in HCT116 xenograft assay” value in experiment [4] (intraperitoneal once/day for 11 days) was “active”.

For `O=C(CS(=O)(=O)CCOP(=O)(N(CCCl)CCCl)N(CCCl)CCCl)N[C@@H](Cc1ccccc1)C(=O)O` [Compound 15A, N-{2-[[2-[[bis[bis(2-chloroethyl)amino]phosphinyl]oxy]ethyl]sulfonyl]acetyl}-L-phenylalanine], the “activity in MX-1 xenograft assay” value in experiment [1] is “active”. In addition, the IC50 in experiment [2] (Homo sapiens, LNCaP, 96 h) is not below 200 µM; in experiment [3] (Homo sapiens, DLD-1, 96 h), 13.7 µM; in the experiment on MX-1 (breast carcinoma) (Homo sapiens, MX1, 72 h), 23.6 µM.

Consider `O=C(c1ccco1)C1CCN(C(=O)c2ccc(CS(=O)(=O)CCOP(=O)(N(CCCl)CCCl)N(CCCl)CCCl)cc2)CC1` [Compound 171A], for which the “activity in MX-1 xenograft assay” value in experiment [1] is listed as “active”. Besides, the “tumor growth inhibition compared to vehicle” value in experiment [1] was 5%. In addition, the IC50 is 27.7 µM in experiment [2] (setting [5]), 6.1 µM in experiment [3] (setting [6]) and 6.1 µM in the experiment with MX-1 (breast carcinoma) (setting [7]).

Regarding `O=P(OCCS(=O)(=O)Cc1cccs1)(N(CCCl)CCCl)N(CCCl)CCCl` [Compound 180A], the “activity in MX-1 xenograft assay” value in experiment [1] is recorded as “active”. The IC50 in experiment [2] (setting [5]) was determined as 16.8 µM; in experiment [3] (setting [6]), 4.9 µM; in the experiment on MX-1 (breast carcinoma) (setting [7]) it was 9.3 µM.

With `C=CS(=O)(=O)CCOP(=O)(N(CCCl)CCCl)N(CCCl)CCCl` [Compound 2A], the IC50 in experiment [2] (setting [5]) was found to be 105 µM; in experiment [3] (setting [6]) it was 1.4 µM; in the experiment on MX-1 (breast carcinoma) (setting [7]), 3.2 µM.

Regarding `O=P(OCCS(=O)(=O)CCOP(=O)(N(CCCl)CCCl)N(CCCl)CCCl)(N(CCCl)CCCl)N(CCCl)CCCl` [Compound 1C, di[2-[[bis[bis(2-chloroethyl)amino]phosphinyl]oxy]ethyl]sulfone], the IC50 came out at 1.4 µM in experiment [2] (Homo sapiens, LNCaP, 96 h); 0.3 µM in experiment [3] (Homo sapiens, DLD-1, 96 h); 0.3 µM in the experiment with MX-1 (breast carcinoma) (Homo sapiens, MX1, 72 h).

In the case of `NCC(=O)Nc1cc(CS(=O)(=O)CCOP(=O)(N(CCCl)CCCl)N(CCCl)CCCl)cc(CS(=O)(=O)CCOP(=O)(N(CCCl)CCCl)N(CCCl)CCCl)c1` [Compound 19B], the IC50 in experiment [2] (setting [5]) is 52 µM; in experiment [3] (setting [6]), 3.8 µM; with MX-1 (breast carcinoma) (setting [7]), 7.6 µM.

Turning to `O=C(O)CCS(=O)(=O)CCOP(=O)(N(CCCl)CCCl)N(CCCl)CCCl` [Compound 29A], the IC50 is 66.4 µM in experiment [2] (setting [5]), 11.5 µM in experiment [3] (setting [6]) and 23 µM in the experiment with MX-1 (breast carcinoma) (setting [7]).

Regarding `O=C(O)c1ccc(CS(=O)(=O)CCOP(=O)(N(CCCl)CCCl)N(CCCl)CCCl)cc1` [Compound 139A], the IC50 was found to be 82.1 µM in experiment [2] (setting [5]), 9.3 µM in experiment [3] (setting [6]) and 25.3 µM in the experiment on MX-1 (breast carcinoma) (setting [7]).

With `COC(=O)c1ccc(CS(=O)(=O)CCOP(=O)(N(CCCl)CCCl)N(CCCl)CCCl)cc1` [Compound 140A], the figures for the IC50 (in experiment [2] (setting [5]); in experiment [3] (setting [6]); in the experiment with MX-1 (breast carcinoma) (setting [7])) were 23.3 µM, 5.9 µM and 11.9 µM, respectively.

`CC(C)(C)OC(=O)NCC(=O)Nc1cccc(CS(=O)(=O)CCOP(=O)(N(CCCl)CCCl)N(CCCl)CCCl)c1` [Compound 144A]: the IC50 in experiment [2] (setting [5]) is 17.9 µM; in experiment [3] (setting [6]), 4 µM; in the experiment with MX-1 (breast carcinoma) (setting [7]), 5.7 µM.

Turning to `O=C(CS(=O)(=O)CCOP(=O)(N(CCCl)CCCl)N(CCCl)CCCl)Nc1ccc([N+](=O)[O-])cc1` [Compound 20A], the IC50 in experiment [2] (setting [5]) turned out to be 3.6 µM; in experiment [3] (setting [6]) it was 2.8 µM; with MX-1 (breast carcinoma) (setting [7]), 4.3 µM.

For `O=C(c1ccc(CS(=O)(=O)CCOP(=O)(N(CCCl)CCCl)N(CCCl)CCCl)cc1)N1CCN(c2ccccn2)CC1` [Compound 176A], the concentration for half-maximal inhibition (IC50) was determined as 29 µM in experiment [2] (setting [5]), 4.9 µM in experiment [3] (setting [6]) and 6.4 µM in the experiment with MX-1 (breast carcinoma) (setting [7]).

Turning to `O=P(OCCS(=O)(=O)CCCCS(=O)(=O)CCOP(=O)(N(CCCl)CCCl)N(CCCl)CCCl)(N(CCCl)CCCl)N(CCCl)CCCl` [Compound 4B], the IC50 in experiment [2] (setting [5]) came out at 11.5 µM; in experiment [3] (setting [6]), 2.9 µM; in the experiment on MX-1 (breast carcinoma) (setting [7]), 4.1 µM.

`O=C(O)[C@H](CS(=O)(=O)CCOP(=O)(N(CCCl)CCCl)N(CCCl)CCCl)NS(=O)(=O)c1ccccc1` [Compound 103A]: the IC50 in experiment [2] (setting [5]) is 151 µM; in experiment [3] (setting [6]), 14.5 µM; in the experiment on MX-1 (breast carcinoma) (setting [7]) it was 18.2 µM.

Regarding `CCC(C)CS(=O)(=O)CCOP(=O)(N(CCCl)CCCl)N(CCCl)CCCl` (stereo not drawn) [Compound 8A], the IC50 was 40.9 µM in experiment [2] (setting [5]), 7 µM in experiment [3] (setting [6]) and 17.5 µM in the experiment with MX-1 (breast carcinoma) (setting [7]).

Take `O=C(CS(=O)(=O)CCOP(=O)(N(CCCl)CCCl)N(CCCl)CCCl)Nc1ccc([N+](=O)[O-])c(C(F)(F)F)c1` [Compound 21A]: the IC50 in experiment [2] (setting [5]) was found to be 6.3 µM; in experiment [3] (setting [6]), 2.8 µM; in the experiment with MX-1 (breast carcinoma) (setting [7]), 4.2 µM.

For the compound `CN(C)C(=O)c1ccc(CS(=O)(=O)CCOP(=O)(N(CCCl)CCCl)N(CCCl)CCCl)cc1` [Compound 155A], the IC50 came out at 42.4 µM in experiment [2] (setting [5]), 10.7 µM in experiment [3] (setting [6]) and 2.6 µM in the experiment with MX-1 (breast carcinoma) (setting [7]).

With `O=C(O)c1ccccc1S(=O)(=O)CCOP(=O)(N(CCCl)CCCl)N(CCCl)CCCl` [Compound 118A], the IC50 in experiment [2] (setting [5]) was not below 200 µM; in experiment [3] (setting [6]) it was 10.9 µM; in the experiment with MX-1 (breast carcinoma) (setting [7]) it was 37.2 µM.

Regarding `N[C@@H](CS(=O)(=O)CCOP(=O)(N(CCCl)CCCl)N(CCCl)CCCl)C(=O)OCc1ccccc1` [Compound 82A], the results for the IC50 (in experiment [2] (setting [5]); in experiment [3] (setting [6]); in the experiment with MX-1 (breast carcinoma) (setting [7])) were 59.8 µM, 7.7 µM and 27.9 µM, respectively.

As to `O=P(OCCS(=O)(=O)Cc1ccc(F)cc1)(N(CCCl)CCCl)N(CCCl)CCCl` [Compound 132A], the IC50 in experiment [2] (setting [5]) was 16.3 µM; in experiment [3] (setting [6]) it was 5 µM; in the experiment with MX-1 (breast carcinoma) (setting [7]) it was 6.1 µM.

As to `O=C(O)CCC(=O)Nc1cccc(CS(=O)(=O)CCOP(=O)(N(CCCl)CCCl)N(CCCl)CCCl)c1` [Compound 142A], the concentration for half-maximal inhibition (IC50) came out at 114 µM in experiment [2] (setting [5]), 18.1 µM in experiment [3] (setting [6]) and 22.5 µM in the experiment with MX-1 (breast carcinoma) (setting [7]).
